Data taken from publication PMC12040169 (PLOS Biology, 2025).

Test: in vitro
Conditions: human, hela cells, % viability

| SMILES | viability at 28.5 h, 10 µM [%] |
| --- | --- |
| O=[N+]([O-])c1nn(-c2ccc(Cl)cc2)[n+]([O-])c1NCc1ccccn1 [CBK268270] | 96.6 |
| c1ccc(-c2nn3c(Cn4nnc5ccccc54)nnc3s2)cc1 [CBK268271] | 106 |
| Cc1cc(S(=O)(=O)NCc2ccccc2)ccc1OCC(=O)N1CCN(C)CC1 [CBK268274] | 86.4 |
| Cn1cnnc1SCC(C)(C)NS(=O)(=O)c1ccccc1 [CBK268276] | 96.4 |
| O=C(NCCSCc1ccco1)Nc1cccc(Cl)c1 [CBK268277] | 99.2 |
| CCOc1ccc(NC(=O)CSc2nc3nc(C)cc(C)n3n2)cc1 [CBK268278] | 107 |
| CC(C)(CSc1ncccn1)NS(=O)(=O)c1ccccc1 [CBK268282] | 88.3 |
| O=C(O)c1ccc2c(c1)C(=O)N(c1nc(-c3cccnc3)n[nH]1)C2=O [CBK268284] | 100 |
| O=C(Cc1cccc2ccccc12)Nc1ccc(Br)cc1C(=O)O [CBK268286] | 99.2 |
| CC(C)(Oc1ccc(Br)cc1)C(=O)NCCOc1ccccc1 [CBK268287] | 114 |
| CS(=O)(=O)Nc1ccc(C(=O)Nc2ccc(S(=O)(=O)N3CCCCCC3)cc2)cc1 [CBK268288] | 107 |
| O=C(CSc1nnc(Cc2cccs2)n1-c1ccccc1)c1c[nH]c2ccccc12 [CBK268290] | 88 |
| Cc1ccc(-c2nc3ncccc3o2)cc1NC(=S)NC(=O)c1ccc(-c2cccc([N+](=O)[O-])c2)o1 [CBK268294] | 102 |
| Cc1ccc(-n2cnnn2)c(S(=O)(=O)N2CCOCC2)c1 [CBK268297] | 102 |
| O=C(CSc1nnc(Nc2ccccc2)n1-c1ccccc1)Nc1ccc2c(c1)COC2=O [CBK268298] | 105 |
| CCc1cc2c(=O)c(-c3nc(C)cs3)c(C)oc2cc1OCc1ccc([N+](=O)[O-])cc1 [CBK268305] | 101 |
| O=S(=O)(NCc1ccc2c(c1)OCO2)c1ccc2c(c1)oc1ccccc12 [CBK268308] | 104 |
| CCCn1c(Nc2nc3ccccc3n2C)nc2ccccc21 [CBK268310] | 85.7 |
| COc1cc(NC(=O)c2cc3nc(-c4cccs4)cc(C(F)(F)Cl)n3n2)c(C(C)=O)cc1OC [CBK268312] | 100 |
| O=C(NC(C(=O)O)c1ccccc1)NC12CC3CC(CC(C3)C1)C2 (stereo not shown) [CBK268313] | 109 |
| O=[N+]([O-])c1nn(-c2ccc3c(c2)OCCO3)[n+]([O-])c1NCCN1CCN(c2ccccc2F)CC1 [CBK268314] | 109 |

| SMILES | viability at 28.5 h, 10 µM [%] |
| --- | --- |
| CCOc1ccc(-n2c(SCc3nc(-c4ccc(C)cc4)no3)nnc2-c2ccncc2)cc1 [CBK268315] | 98.3 |
| CCc1ccc2occ(CC(=O)Nc3ccc(C(=O)OC)cc3)c2c1 [CBK268318] | 105 |
| Clc1ccc(-c2nn3c4cc(N5CCNCC5)ccc4nc3c3ccccc23)cc1 [CBK268319] | 102 |
| O=C(CSc1nc(Nc2ccccc2)nc(N2CCOCC2)n1)Nc1ccc2c(c1)OCO2 [CBK268320] | 96.5 |
| Cn1c(CN2CCN(S(=O)(=O)c3ccccc3)CC2)nc2cc([N+](=O)[O-])ccc21 [CBK268321] | 102 |
| CC(CO)(CO)NCc1ccc(-c2ccccc2)cc1 [CBK268325C] | 78.9 |
| O=C(COc1ccc(S(=O)(=O)N2CCCCC2)cc1)NCc1cccnc1 [CBK268328] | 97.6 |
| COc1ccccc1CC(=O)Nc1ccc(-c2nnc(-c3ccc(C)cc3)o2)cc1 [CBK268329] | 105 |
| c1ccc(CCc2nn3c(Cn4cnc5ccccc54)nnc3s2)cc1 [CBK268332] | 84.2 |
| COc1ccc(-c2nnc(SCC(=O)c3ccc(C)o3)o2)cc1 [CBK268334] | 88 |
| O=C(NC(=S)N1CCN(c2ccc([N+](=O)[O-])c(N3CCOCC3)c2)CC1)c1cc2ccccc2o1 [CBK268335] | 109 |
| Cc1ccc(NC(=O)Cn2nc(C)c([N+](=O)[O-])c2C)cc1Cl [CBK268336] | 98.5 |
| Brc1ccc(OCc2ccccc2)c(CNCc2ccccn2)c1 [CBK268340C] | 99.9 |
| Cc1ccc(-c2nn3c(C)nnc3c3ccccc23)cc1S(N)(=O)=O [CBK268342] | 97.3 |
| COc1cccc(NC(=O)CSc2nnc(-c3ccccc3O)n2-c2ccccc2)c1 [CBK268343] | 108 |
| COCCN1C(=O)c2ccc(C(=O)Nc3ccc(O)c(C(=O)O)c3)cc2C1=O [CBK268344] | 102 |
| O=C(CSc1nnc(-c2cc(Br)ccc2O)n1-c1ccccc1)N1CCc2ccccc21 [CBK268346] | 105 |
| COc1ccc(-c2nnc(SCC(=O)O)n2-c2cccc(C(F)(F)F)c2)cc1OC [CBK268347] | 88.7 |
| O=C(COc1ccc(S(=O)(=O)N2CCOCC2)cc1)N1CCc2ccccc2C1 [CBK268350] | 92.1 |
| O=C(Nc1cccc(S(=O)(=O)N2CCCC2)c1)c1nc[nH]n1 [CBK268353] | 103 |
| CC(C)C(CCC(=O)Nc1ccccc1[N+](=O)[O-])C(=O)O (stereo not shown) [CBK268356] | 86.3 |

| SMILES | viability at 28.5 h, 10 µM [%] |
| --- | --- |
| Cc1ccc(Cl)cc1NC(=O)c1ccc(NCCN2C(=O)C3C4C=CC(C4)C3C2=O)c([N+](=O)[O-])c1 (stereo not shown) [CBK268357] | 92.2 |
| O=C(CCn1c(=O)oc2ccccc21)Nc1ccc(S(=O)(=O)N2CCCCC2)cc1 [CBK268365] | 82 |
| CC(=O)NCCc1nc2cc(NC(=O)c3ccc([N+](=O)[O-])cc3)ccc2n1C [CBK268368] | 117 |
| Cc1ccc(Cl)cc1NC(=O)c1cc(NC(=O)C2CCCCC2C(=O)O)ccc1N1CCCCC1 (stereo not shown) [CBK268371] | 87 |
| O=S(=O)(Cc1ccc(Cl)cc1)NCCCn1ccnc1 [CBK268372] | 106 |
| Cc1ccc(S(=O)(=O)NC(C)(C)CSc2nnc[nH]2)cc1 [CBK268374] | 81.5 |
| Cc1cc(=O)n2c3ccccc3n(CC(O)CN3CCN(C(c4ccccc4)c4ccccc4)CC3)c2c1C#N (stereo not shown) [CBK268375] | 89.8 |
| Cc1ccc([N+](=O)[O-])cc1NC(=O)CSc1nnc(-c2ccco2)o1 [CBK268378] | 117 |
| CS(=O)(=O)Nc1ccc(C(=O)Nc2ccc(S(=O)(=O)N3CCOCC3)cc2)cc1 [CBK268379] | 117 |
| O=C(CSCc1c(F)cccc1Cl)NCc1ccncc1 [CBK268381] | 87.1 |
| CC(=O)Nc1ccc(S(=O)(=O)Nc2cc(C)c(-n3nc4ccccc4n3)cc2O)cc1 [CBK268382] | 81.2 |
| Cc1nn2c(-c3cccc(NC(=O)CN4CCOCC4)c3)nnc2c2ccccc12 [CBK268383] | 84.3 |
| O=C(CSc1ccc(Cl)cc1)NNC(=O)c1cccc([N+](=O)[O-])c1 [CBK268384] | 93.5 |
| COc1ccccc1NC(=O)CSCc1nc2ccccc2[nH]1 [CBK268385] | 105 |
| O=C(NCCN1CCOCC1)NCC12CC3CC(C1)CC(c1ccccc1)(C3)C2 [CBK268388] | 89.1 |
| O=S(=O)(c1ccc(NC(=S)NCc2cccnc2)cc1)N1CCOCC1 [CBK268396] | 72.8 |
| O=C(O)c1cc(S(=O)(=O)N2CCOCC2)ccc1F [CBK268398] | 106 |
| CSc1nc2ccc(S(=O)(=O)N3CCCC3)cc2s1 [CBK268400] | 104 |
| COc1ccc(OC)c(Nc2nc(NCC3CCCO3)c3ccccc3n2)c1 (stereo not shown) [CBK268403C] | 90.9 |
| Cn1c(CN2CCCCC2)nc2cc(NS(=O)(=O)c3ccc(Cl)cc3)ccc21 [CBK268404] | 82.8 |
| Nn1c(SCc2cc(=O)[nH]c3ccccc23)nnc1C(O)c1ccccc1 (stereo not shown) [CBK268405] | 99.2 |

| SMILES | viability at 28.5 h, 10 µM [%] |
| --- | --- |
| Cc1cccc(-c2nc(=S)c3c(n2CCCN(C)C)CCCC3)c1 [CBK268406] | 102 |
| O=C(NCCc1ccccc1)c1ccccc1NS(=O)(=O)N1CCCC1 [CBK268407] | 80.5 |
| O=[N+]([O-])c1ccc(N2CCN(Cc3c(O)ccc4ccccc34)CC2)cc1NCc1ccccc1 [CBK268408] | 105 |
| CCOC(=O)c1ccc(-c2ccc(/C=C/c3nn4cnnc4c(O)c3[N+](=O)[O-])o2)cc1 [CBK268409] | 107 |
| COc1ccc(Cl)cc1NC(=O)CSc1nc2cc3ccccc3cc2[nH]1 [CBK268410] | 82.1 |
| O=C(COc1ccc(S(=O)(=O)N2CCCC2)cc1Cl)NCc1ccccn1 [CBK268412] | 91.3 |
| O=C(O)CCN1C(=O)c2ccc(NC(=O)c3ccccc3Cl)cc2C1=O [CBK268413] | 83.7 |
| Cc1ccc(Nc2c([N+](=O)[O-])nn(-c3ccccc3)[n+]2[O-])cc1F [CBK268414] | 102 |
| Cn1c(CCN2CCOCC2)nc2cc(NC(=O)c3cccs3)ccc21 [CBK268415] | 97.9 |
| COc1ccc(NC(=O)CSCc2cc(O)[nH]n2)cc1 [CBK268417] | 99.3 |
| c1nc(NCCN2CCOCC2)c2c3c(sc2n1)CCCCC3 [CBK268418] | 103 |
| O=C(O)COc1ccc(S(=O)(=O)N2CCCCC2)cc1Cl [CBK268419] | 105 |
| CC(C)(C)NC(=O)COc1ccc(CNCc2ccccn2)cc1 [CBK268420C] | 95.5 |
| CC(C)(C)c1ccc(OCc2nnc(S)n2N)cc1 [CBK268421] | 89.1 |
| O=C(CSc1oc(-c2ccco2)nc1S(=O)(=O)c1ccccc1)c1ccccc1 [CBK268424] | 96.9 |
| CN(CC(=O)O)S(=O)(=O)c1cccc2cccc(Cl)c12 [CBK268433] | 107 |
| COC(=O)Nc1ncc(CN2C(=O)c3ccccc3C2=O)s1 [CBK268434] | 111 |
| O=C(CSCc1ccc(Br)cc1)NCc1ccccn1 [CBK268435] | 102 |
| Cn1c(CCNC(=O)C2CCCCC2)nc2cc([N+](=O)[O-])ccc21 [CBK268440] | 106 |
| Fc1cc(Cl)ccc1NC(=S)NCCN1CCOCC1 [CBK268441] | 98.4 |
| O=C(O)COc1ccc(S(=O)(=O)Nc2ccc(F)cc2)cc1 [CBK268442] | 105 |

Same assay, conditions: human, hela cells, % viability, bulk resorufin, single well

| SMILES | viability at 28.5 h, 10 µM [%] |
| --- | --- |
| CC(C)NC(=O)Cn1cc(C(=O)COc2ccccc2)c2ccccc21 [CBK268317] | 82.6 |
